Test results as given in paper PMC4965013, “Open Source Drug Discovery with the Malaria Box Compound Collection for Neglected Diseases and Beyond” (PLoS Pathogens, 2016).

How the values were obtained:
[1] = system: Leishmania donovani axenic amastigotes; assay: L. donovani axenic amastigotes Scynexis; format: cell-based
[2] = system: B. bigemina (Argentine strain); assay: B. bigemina fluorescence-based growth assay; format: cell-based; settings: Babesia bigemina
[3] = Plasma protein binding mouse; format: in vitro ADME; settings: CD-1, mouse
Description: (§1) Columns GD-GJ: Wuxi Inc. data for MMV (data presented first in this paper) PK/DMPK Parameters: Fasted animals (Male CD-1 mouse, 7-9 weeks age, 30±10 g, n=3) obtained from an approved vendor (SLAC Laboratory Animal Co. Ltd., Shanghai, China or Sino-British SIPPR/BK Laboratory Animal Co. Ltd Shanghai, China) were administered with a single oral dose (140 μmol/kg) using DMSO: 1% HPMC (5:95) as a vehicle. Blood sampling was performed via the submandibular or saphenous vein (t=0.083, 0.25, 1, 2, 4, 6 and 9 h) and transferred into microcentrifuge tubes containing Sodium Heparin (1,000 IU/ml) as anti-coagulant placed on wet ice until processed for plasma by centrifugation at approximately 4°C, 3000×g for 15 min. Plasma samples were stored in polypropylene tubes, quick frozen over dry ice and kept at -70±10°C until LC/MS/MS analysis. LC/MS/MS methods for the quantitative determination compounds plasma levels were developed with an internal standard. […] (Phoenix WinNonlin, version 6.2.1, Pharsight, Mountain View, CA) and expressed as Cmax & AUC0-last. […] AUC0-last is the area under the curve expressed as >12 h*μM (Yes or No). Plasma protein binding assay (PPB) (CD-1 mouse and human) expressed as <95% bound, >95% bound, or >99% bound. Kinetic Solubility at pH 7.4 was determined by liquid chromatography/chemiluminescence nitrogen detection (LC/CLND) and was scored as greater than 20µM (Yes or No). hERG inhibition was measured at 11µM by the QPatch- HT system and is expressed as “Yes” if greater than 45% inhibited at 11µM and “No” if less than or equal to 45% inhibited at 11µM. As part of the Drug-Drug Interaction studies (DDI issues), 5 human and 1 mouse CYP isoforms (1A2, 2C9, 2C19, 2D6, 3A4-M, 3A4-T) were tested for inhibition assay at 10 µM. […] Otherwise DDI issues were scored as “No”. Positive and negative controls were run for each assay (Table 1).

[4] = Plasma protein binding human; format: in vitro ADME
Description: as §1

[5] = system: P. berghei liver stages in HepG2; assay: P. berghei liver stage luciferase Hanson; format: cell-based; settings: Plasmodium berghei, read-out: P. berghei Liver Stage % of control infection (Luciferase)
Description: Columns AS-AT: Hanson group (data presented first in this paper). P. berghei liver stage growth. Phenotypic analysis of Malaria Box compound activity against P. berghei liver stages and assay development will be reported elsewhere (Medina Vera, Itoe, et al; in preparation). Methods: Screening was carried out in 96 well plates, with 10,000 HepG2 cells (ATCC) seeded one day prior to infection with 10,000 P. berghei-Luciferase (676m1cl1) sporozoites per well in the presence of 1:300 Fungizone (Life Technologies). Medium was replaced 2 hours post-infection (hpi) and the Malaria Box compounds were added at a final concentration of 5 µM at this time. At 48 hpi, parasite load, by way of luminescence, was quantified after a 10 minute incubation with 50 µl of 150 µg/ml D-Luciferin on a Tecan Infinite M200 plate reader. Plates included 8 wells of DMSO (compound vehicle and positive control for infection), along with 8 non-infected wells serving as negative controls. Luminescence values for individual wells were normalized to the mean of the in-plate DMSO controls, which was set at 100. […] The normalized mean of non-infected control wells was 2.5, with a standard deviation of 2. Data presented are the average of 3 independent experiments, each conducted in technical triplicate. Toxicity of the compounds was determined at 66 hpi based on HepG2 cell abundance in 9 non-overlapping images per well, generated with a Molecular Devices IXM using a 40x objective. Briefly, EEFs were identified based on 2E6 immunolabeling and used to mask widefield images of Hoechst 33452-labeled nuclei, and the percentage of each 2,160 x 2,160 pixel image occupied by Hoechst^+ pixels, representing HepG2 nuclei only, was then determined for all images in CellProfiler. Data is from one representative experiment. The mean area occupied by HepG2 nuclei in the 8 DMSO controls wells was set to 1, and used to normalize those treated with compounds.

[6] = Kinetic Solubility at pH 7.4 (LC/CLND); format: physicochemical; settings: pH 7.4, aqueous buffer, kinetic from dmso stock; read-out: Kinetic Solubility >20µM at pH 7.4
Description: as §1

[7] = system: Entamoeba histolytica Rahman; set-up: method as in ref [87] (a number printed in a supplementary file, which may have a reference list of its own: not looked up in the article's list); settings: read-out: Entamoeba histolytica Rahman EC50 (30 means >30); ref [87]; cited from earlier work
Dictyostelium discoideum = assay: D. discoideum toxicity assay; format: cell-based; settings: 10µM
Description: Columns FA-FC: Soldati Group (data presented first in this paper). M. marinum, D. discoideum, and Acathamoeba castellani assays. Each compound of the Malaria Box has been assayed at 10 µM in all three assays. First, the antibiotic activity was assayed directly against Mycobacterium marinum in its culture medium. Second, the toxicity and growth inhibitory effect of the compounds was assayed against the amoeba Dictyostelium discoideum in its culture medium. Finally, the “in cellulo” anti-infective activity of each compound was tested using the intracellular infection system Acanthamoeba castellanii-M. marinum. Values have been normalized using the DMSO carrier. For each assay, values have been normalized to 1.00 using the DMSO carrier, which has no detectable effect on D. discoideum nor M. marinum growth, while rifabutin was used as positive control for the antibiotic assay and the infection assay, as it abolishes M. marinum growth (normalized value under 0.10) in broth at 10 µM and intracellularly at 30 µM [150].

[8] = system: P. falciparum W2 apicoplast; settings: 5µM compound; ref [54]; cited from earlier work

Row | SMILES | inhibition at 5 µM [1] | EC50 [2] | fraction unbound [3] | fraction unbound [4] | activity at 5 µM [5] | solubility kinetic [6] | EC50 [7] | Dictyostelium discoideum relative growth DMSO=1 Toxicity Assay (Dictyostelium discoideum) | P. falciparum (W2) asexual growth: ratio w & wout 200µM IPP [8]
1 | CCN1CCN(c2cc(C)c3cc(NC(=O)c4ccc(OC)c(OC)c4)ccc3n2)CC1 [MMV019074] | -34% | 7.92 µM | < 0.05 | > 0.05 | 105% | < 20 µM | > 30 µM | – | –
2 | COc1ccc(C(=O)Nc2ccc3nc(N4CCCCC4)cc(C)c3c2)cc1OC [MMV019758] | -50% | 0.46 µM | < 0.01 | < 0.01 | 74% | < 20 µM | > 30 µM | 0.88 | 0.79
3 | COc1cc2cc(C(=O)Nc3ccccc3)c(N)nc2cc1OC [MMV006767] | -49% | 21.1 µM | > 0.05 | > 0.05 | 53% | > 20 µM | > 30 µM | – | –
4 | CCOC(=O)c1cnc2ccc(OC)cc2c1NCc1ccccc1 [MMV665813] | 52% | 1 µM | < 0.01 | < 0.01 | 66% | < 20 µM | > 30 µM | 0.71 | 0.72
5 | CCN(CC)c1cc(C)c2cc(NC(=O)c3cccc(OC)c3)ccc2n1 [MMV000498] | -65% | 8.99 µM | < 0.01 | < 0.01 | 63% | < 20 µM | > 30 µM | 0.60 | 1.10
